For one data set, the system named is VMAT2-HEK cells. In words: Chloroquine-induced Mini202 redistribution in VMAT2-HEK cells. Format: cell-based, human. Particulars: chloroquine 300 μM, 3 min, VMAT2-HEK cells labeled with Mini202. The method, then:
For the chloroquine-induced Mini202 redistribution experiment, after probe loading and cell washing with PBS, 1 mL of experimental media containing 300 μM chloroquine was added to the cells at RT for 3 minutes, after which time fluorescent images were taken by the same procedure described above.

Data set [1] is described as follows: log D by shake flask method (n-octanol / PBS pH 7.4). The format is physicochemical. The method, then: The log D values were determined by traditional shake flask method. Each measurement was performed in duplicate as follows. First, 20 μM probe solution in 1 mL PBS (pH 7.4) was prepared to which 1 mL of n-octanol was added and mixed thoroughly. The mixture was kept in dark for 3 days for complete equilibrium, and the concentrations of probe in each layer were determined based on the UV absorbance. Log D values were determined based on the equation; log D=log [probe]oct−log [probe]PBS, where [probe]oct and [probe]PBS are the concentrations of the probe in n-octanol and PBS, respectively.

Data set [2] can be described thus: pKa from absorption spectra in PBS at different pH. The format is physicochemical. As to conditions: from absorbance at λabs,max versus pH of PBS. As for the experimental part:
UV absorption spectra were taken by adding probe (2 μL of 10 mM stock solution in DMSO) to 998 μL of PBS buffer at different pH values (final probe conc.=20 μM) in quartz cuvette.
The pKa values of probes were determined from the absorption spectra.

Another data set concerns LDCVs in PC-12 cells. The data set can be described thus: Two-photon ratiometric pH measurement of secretory vesicles (LDCVs) in PC-12 cells. Particulars: PC-12 cells loaded with Mini202, 100 μM methamphetamine, 5 minutes, RT.
Another data set deals with T1, VMAT2 (Rattus norvegicus, UniProt Q01827).
T1 construct: host or cells: HEK GnTI- (nonglycosylating) cells stably expressing VMAT2
In words: Fluorescent microscopy probe uptake assay in VMAT2/HEK cells. Format: cell-based. As to conditions: 20 μM probe; for Uptake pattern in screening with VMAT2/HEK and HEK cells: 30 min, VMAT2/HEK vs HEK cells, with or without 1 μM TBZ or reserpine; for Probe uptake in VMAT2-HEK cells: 30 min incubation. As for the experimental part:
HEK GNTI^− (nonglycosylating) cell line stably expressing VMAT2 (VMAT2-HEK) and HEK GNU^− cell line stably transected with TetR (HEK) to serve as a control were kindly provided by the laboratory of Robert Edwards at UCSF. Cells were grown in DMEM+Glutamax (Invitrogen #10569) with 10% fetal bovine serum (FBS) (Atlanta Biologicals), 100 U/ml penicillin (Nitrogen), and 100 μg/ml streptomycin (Invitrogen). […] The medium was removed by aspiration, and the cells were washed with PBS (2 mL per well). […] Then, the probe uptake was initiated by adding 0.1 mL of experimental media containing probe (220 μM, prepared from 10 mM stock solution in DMSO, final conc.=20 μM in the uptake assay). After incubating at 37° C. for 30 minutes, the media was removed by aspiration, and the cells were washed with PBS (2 mL per well) and treated with probe-free experimental media. Fluorescence images were taken by using Leica FW 4000 equipped with Chroma custom filter cube (ex=350/50 nm, em=460/50 nm) and Hamamatsu digital camera C4742-95. The fluorescent images and bright field images were acquired for 2000 ms and 37 ms, respectively. All images were adjusted using the same contrast and brightness level using Images J (National Institute of Health).

Data set [3] is described as follows: Photostability of probe in fluorescence microscopy.
The next data set deals with T2, VMAT1 (Rattus norvegicus, UniProt Q01818).
T2 construct: PC-12 cells express mostly VMAT1 on their secretory large dense core vesicles (LDCVs); host or cells: PC-12 cells
T2 sequence (Q01818 1-521): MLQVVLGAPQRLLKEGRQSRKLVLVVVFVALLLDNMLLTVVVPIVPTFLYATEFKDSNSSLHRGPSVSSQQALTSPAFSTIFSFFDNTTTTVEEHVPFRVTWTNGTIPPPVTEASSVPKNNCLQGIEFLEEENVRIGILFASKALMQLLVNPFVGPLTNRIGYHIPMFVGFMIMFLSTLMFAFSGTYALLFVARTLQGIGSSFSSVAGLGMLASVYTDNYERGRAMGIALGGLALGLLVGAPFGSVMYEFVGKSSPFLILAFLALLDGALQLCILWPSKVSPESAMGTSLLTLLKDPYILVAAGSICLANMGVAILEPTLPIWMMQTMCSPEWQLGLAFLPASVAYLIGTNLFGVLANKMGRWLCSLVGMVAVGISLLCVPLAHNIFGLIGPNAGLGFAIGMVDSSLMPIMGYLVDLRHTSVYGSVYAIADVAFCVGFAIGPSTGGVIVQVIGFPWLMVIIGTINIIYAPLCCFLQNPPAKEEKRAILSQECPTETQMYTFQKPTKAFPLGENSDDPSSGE
The data set can be described thus: Fluorescent microscopy uptake of Mini202 in PC-12 cells. The format is cell-based. As for the experimental part: PC-12 cells were purchased and maintained according to the protocols provided by American Type Culture Collection (ATCC, CRL-1721). Among the two variations of PC-12 provided by ATCC, the one displaying loosely adherent (with no PDL coating) and multicell-aggregating phenotype was used. PC-12 cells were grown in RPMI-1640 (Invitrogen, #11875) with 10% horse serum (Invitrogen, #16050-114), 5% fetal bovine serum (FBS) (Atlanta Biologicals), 100 U/ml penicillin (Invitrogen), and 100 μg/ml streptomycin (Invitrogen). […] After 6 days when the cells get ˜70% confluent, the medium was removed by aspiration, and the cells were washed with PBS (2 mL per well). […] Then, the probe uptake was initiated by adding 0.1 mL of experimental media containing Mini202 (220 μM, prepared from 10 mM stock solution in DMSO, final conc.=20 μM in the uptake assay) to the cells. After incubating the cells at 37° C. for 1 hour, the medium was removed by aspiration, and cells were washed with PBS (2 mL per well) and treated with dye-free experimental media. Fluorescence images were taken by using Leica FW 4000 equipped with Chroma custom filter cube (ex=350/50 nm, em=460/50 nm) and Hamamatsu digital camera C4742-95. The fluorescent images and bright field images were acquired for 2000 ms and 37 ms, respectively. […]

The test system of the next data set is HEK cells. In words: Fluorescent microscopy probe uptake in control (non-transfected) HEK cells. Particulars: 20 μM probe, 30 min incubation. Format: cell-based, human. As for the experimental part: HEK GNTI^− (nonglycosylating) cell line stably expressing VMAT2 (VMAT2-HEK) and HEK GNU^− cell line stably transected with TetR (HEK) to serve as a control were kindly provided by the laboratory of Robert Edwards at UCSF. Cells were grown in DMEM+Glutamax (Invitrogen #10569) with 10% fetal bovine serum (FBS) (Atlanta Biologicals), 100 U/ml penicillin (Nitrogen), and 100 μg/ml streptomycin (Invitrogen). […] After 5 days, the cells looked fibroblastic and had reached ˜70% confluence. The medium was removed by aspiration, and the cells were washed with PBS (2 mL per well). […] Then, the probe uptake was initiated by adding 0.1 mL of experimental media containing probe (220 μM, prepared from 10 mM stock solution in DMSO, final conc.=20 μM in the uptake assay). After incubating at 37° C. for 30 minutes, the media was removed by aspiration, and the cells were washed with PBS (2 mL per well) and treated with probe-free experimental media. Fluorescence images were taken by using Leica FW 4000 equipped with Chroma custom filter cube (ex=350/50 nm, em=460/50 nm) and Hamamatsu digital camera C4742-95. The fluorescent images and bright field images were acquired for 2000 ms and 37 ms, respectively. All images were adjusted using the same contrast and brightness level using Images J (National Institute of Health).

The nature of data set [4]: Two-photon ratiometric pH measurement of secretory vesicles (LDCVs) in PC-12 cells.
[5] abbreviates: n-octanol/PBS, pH 7.4, n-octanol / PBS pH 7.4, 20 μM probe.
The mark [6] stands for this setting: PBS buffer at different pH values, read-out: pKa.
Setting [7] is: n-octanol / PBS pH 7.4, 20 μM probe.

Several values for one entry are separate records, joined by “and”; a condition that tells them apart may be missing. Identical values can stand only once. Entries after “also recorded” stand apart in the source; their conditions may differ.

T1 sequence (Q01827 whole entry): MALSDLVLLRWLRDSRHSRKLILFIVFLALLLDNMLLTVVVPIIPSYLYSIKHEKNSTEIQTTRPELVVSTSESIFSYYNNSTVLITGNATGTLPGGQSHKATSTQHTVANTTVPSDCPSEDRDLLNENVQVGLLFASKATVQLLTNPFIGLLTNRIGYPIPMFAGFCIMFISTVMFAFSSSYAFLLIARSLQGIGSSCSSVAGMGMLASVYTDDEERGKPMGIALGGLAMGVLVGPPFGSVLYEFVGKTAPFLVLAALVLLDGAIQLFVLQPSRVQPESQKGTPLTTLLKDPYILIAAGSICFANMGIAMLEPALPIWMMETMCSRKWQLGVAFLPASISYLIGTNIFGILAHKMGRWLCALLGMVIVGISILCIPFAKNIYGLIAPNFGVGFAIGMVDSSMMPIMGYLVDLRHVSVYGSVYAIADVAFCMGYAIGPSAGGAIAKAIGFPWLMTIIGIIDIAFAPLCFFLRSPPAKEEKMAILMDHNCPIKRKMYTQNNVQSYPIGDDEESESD

On to `CCN(CC)CCCC(C)Nc1ccnc2cc(Cl)ccc12` (centres unmarked) [chloroquine], for which, in the data set with VMAT2-HEK cells, the “Redistribution of Mini202 from acidic vesicles” value is reported as “diffusion of the punctuate fluorescent pattern; also recorded: redistribution of Mini202 from the acidic vesicles to cytosol”.

Take `NCCc1cc(=O)oc2cc(O)c(F)cc12` [Mini103]: the logD – broadly, the decadic logarithm of the distribution of all forms, ionised or not, between an organic phase and buffer at a given pH – at 3 days in [1] (setting [5]) was -1.98. In data set [2] (setting [6]), the pKa (commonly the negative logarithm of the acid dissociation constant) was found to be 5.95.

As for `CN[C@@H](C)Cc1ccccc1` [methamphetamine], in the data set with LDCVs in PC-12 cells, the “emission ratio (I760/I692) after drug exposure” value was 1.19; the “vesicular pH in PC-12 cells after drug exposure” value was 6.36 and 6.4.

Regarding `NCCc1cc2cc(Cl)c(O)cc2oc1=O` [Mini202], the “Uptake pattern in screening with VMAT2/HEK and HEK cells” value at VMAT2 is recorded as “VMAT2 substrates”. Also, the “Probe uptake in VMAT2-HEK cells” value at VMAT2 is “highest uptake; also recorded: punctuate fluorescence patterns”; at VMAT2 (listed as Mini202.TFA) it was “punctuate uptake in a VMAT2-dependent manner; also recorded: fluorescent puncta”. Further, in data set [3], the Photostability result is “photostable”. The “Mini202 uptake / labeling in PC-12 cells” value at VMAT1 (20 μM, 1 h) was “fluorescent puncta; also recorded: VMAT1 substrate”. In addition, the “LogD (at pH 7.4)” value in data set [1] (setting [7]) was −1.5 and −1.42. The “Probe uptake in non-transfected HEK cells” value was “No uptake” in the data set with HEK cells and “no uptake” with HEK cells (listed as Mini202.TFA). Also, the pKa in data set [2] (setting [6]) turned out to be 6.1; in data set [2], 6.06; in data set [4] it was 5.93 ± 0.04.

As for `NCCc1cc(=O)oc2cc(O)c(Cl)cc12` [Mini102], in [1] (setting [5]), the log distribution coefficient (logD) at 3 days is -1.45. Moreover, the results for the pKa in data set [2] (setting [6]) and in data set [2] were 5.8 and 5.77, respectively.

For the compound `NCCC(=O)c1cc2cc(Cl)c(O)cc2oc1=O` [Mini302], the “Uptake pattern in screening with VMAT2/HEK and HEK cells” value on VMAT2 was “no uptake in either cell lines”. The compound further returned a logD at 3 days in [1] (setting [7]) of 0.24. Moreover, the pKa in data set [2] (setting [6]) was 4.68.

On to `NCCc1cc(=O)oc2c(Cc3ccccc3)c(O)c(F)cc12` [Mini106], for which the “Uptake pattern in screening with VMAT2/HEK and HEK cells” value on VMAT2 is “VMAT2 substrates”. Also, the logD at 3 days in data set [1] (setting [7]) was found to be 0.18. The pKa in [2] (setting [6]) is 6.09.

As to `CC(C)(C)CC(C)(C)c1cc2c(CCN)cc(=O)oc2cc1O` [Mini105], on VMAT2, the “Uptake pattern in screening with VMAT2/HEK and HEK cells” value was “non-selective uptake”. This compound also returned a logD at 3 days in [1] (setting [7]) of 1.3. Also, the pKa in data set [2] (setting [6]) came out at 8.49.

`NCCC(=O)c1cc2ccc(O)cc2oc1=O` [Mini301]: on VMAT2, the “Uptake pattern in screening with VMAT2/HEK and HEK cells” value is on record as “no uptake in either cell lines”. This compound also came in with a logD at 3 days in data set [1] (setting [7]) of 0.14. Also, the pKa in data set [2] (setting [6]) was found to be 7.

Turning to `COC(=O)[C@H]1[C@H]2C[C@@H]3c4[nH]c5cc(OC)ccc5c4CCN3C[C@H]2C[C@@H](OC(=O)c2cc(OC)c(OC)c(OC)c2)[C@@H]1OC` [reserpine, reference compound], the “Effect of VMAT1 inhibitor on Mini202 uptake in PC-12 cells” value on VMAT1 (reserpine 1 μM, 1 h pre-incubation, then 20 μM Mini202 1 h) is given as “no detectable labeling; also recorded: completely inhibited”.

Take `NCCc1cc2ccc(O)cc2oc1=O` [Mini201]: the “Uptake pattern in screening with VMAT2/HEK and HEK cells” value on VMAT2 is given as “VMAT2 substrates”. The compound further gave a logD at 3 days in data set [1] (setting [5]) of -1.01. The pKa in data set [2] (setting [6]) turned out to be 7.6.

`CC(C)(C)c1cc2c(CCN)cc(=O)oc2cc1O` [Mini104]: on VMAT2, the “Uptake pattern in screening with VMAT2/HEK and HEK cells” value is listed as “non-selective uptake”. Further, in data set [1] (setting [5]), the logD at 3 days amounted to 0.89. The pKa in data set [2] (setting [6]) stood at 7.94.

Turning to `NCCc1cc(=O)oc2cc(O)ccc12` [Mini101], in data set [1] (setting [5]), the logD at 3 days was -0.94. Also, the pKa is 7.2 in data set [2] (setting [6]) and 7.24 in data set [2].

`NCCc1cc2c(ccc3ccc(O)cc32)oc1=O` [Mini401]: the “Uptake pattern in screening with VMAT2/HEK and HEK cells” value at VMAT2 is reported as “non-selective uptake”. The logD at 3 days in data set [1] (setting [7]) is 0.86. Also, the pKa in data set [2] (setting [6]) turned out to be 9.36.

(Values after US9075014B2, “pH-responsive fluorescent false neurotransmitters and their use” (THE TRUSTEES OF COLUMBIA UNIVERSITY IN THE CITY OF NEW YORK, priority 2011, dated 2015).)
